Measurements taken from patent publication US10106558B2, “Azolobenzazine compounds, compositions comprising these compounds and their use for controlling invertebrate pests” (BASF SE, priority 2015, dated 2018).
Where two headings read alike, the source gives them in different places.

How the values were obtained:
Assay type in all cases: in vivo
[1] = system: yellow fever mosquito (Aedes aegypti); assay: whole plant or invertebrate; settings: 48 h, larval mortality visually assessed after 2 days, read-out: mortality in comparison with untreated controls
Description: Example B1: Action on Yellow Fever Mosquito (Aedes aegypti)
For evaluating control of yellow fever mosquito (Aedes aegypti) the test unit consisted of 96-well-microtiter plates containing 200 μl of tap water per well and 5-15 freshly hatched A. aegypti larvae.
The active compounds were formulated using a solution containing 75% (v/v) water and 25% (v/v) DMSO. Different concentrations of formulated compounds or mixtures were sprayed onto the insect diet at 2.5 μl, using a custom built micro atomizer, at two replications.
After application, microtiter plates were incubated at 28+1° C., 80+5% RH for 2 days. Larval mortality was then visually assessed.

[2] = system: boll weevil (Anthonomus grandis); assay: Action on boll weevil, eggs on insect diet in 96-well microtiter plates; settings: 120 h, read-out: mortality in comparison with untreated controls
Description: Example B3: Action on Boll Weevil (Anthonomus grandis)
For evaluating control of boll weevil (Anthonomus grandis) the test unit consisted of 96-well-microtiter plates containing an insect diet and 5-10 A. grandis eggs.
(§1) The compounds were formulated using a solution containing 75% v/v water and 25% v/v DMSO. Different concentrations of formulated compounds were sprayed onto the insect diet at 5 μl, using a custom built micro atomizer, at two replications.
After application, microtiter plates were incubated at about 25±1° C. and about 75±5% relative humidity for 5 days. Egg and larval mortality was then visually assessed.

[3] = system: tobacco budworm (Heliothis virescens); assay: Action on tobacco budworm, eggs on insect diet in 96-well microtiter plates; settings: 120 h, egg and larval mortality visually assessed after 5 days, read-out: mortality in comparison with untreated controls
Description: Example B6: Action on Tobacco Budworm (Heliothis virescens)
For evaluating control of tobacco budworm (Heliothis virescens) the test unit consisted of 96-well-microtiter plates containing an insect diet and 15-25 H. virescens eggs.
The compounds were formulated using a solution containing 75% v/v water and 25% v/v DMSO. Different concentrations of formulated compounds were sprayed onto the insect diet at 10 μl, using a custom built micro atomizer, at two replications.
After application, microtiter plates were incubated at about 28±1° C. and about 80±5% relative humidity for 5 days. Egg and larval mortality was then visually assessed.

[4] = system: Mediterranean fruitfly (Ceratitis capitata); assay: Action on Mediterranean fruitfly, eggs on insect diet in microtiter plates; settings: 120 h, egg and larval mortality visually assessed after 5 days, read-out: mortality in comparison with untreated controls
Description: Example B5: Action on Mediterranean Fruitfly (Ceratitis capitata)
For evaluating control of Mediterranean fruitfly (Ceratitis capitata) the test unit consisted of microtiter plates containing an insect diet and 50-80 C. capitata eggs.
as §1
After application, microtiter plates were incubated at about […] and about 80+5% relative humidity for 5 days. Egg and larval mortality was then visually assessed.

[5] = system: Diamond Back Moth (Plutella xylostella); assay: Action on diamond back moth, dipped cabbage leaves; settings: 3rd instar larvae, 72 hours after treatment, read-out: mortality in comparison with untreated controls
Description: Example B9: Action on Diamond Back Moth (Plutella xylostella)
The active compound is dissolved at the desired concentration in a mixture of 1:1 (vol:vol) distilled water:acetone. Surfactant (Kinetic® HV) is added at a rate of 0.01% (vol/vol). The test solution is prepared at the day of use.
Leaves of cabbage were dipped in test solution and air-dried. Treated leaves were placed in petri dishes lined with moist filter paper and inoculated with ten 3rd instar larvae. Mortality was recorded 72 hours after treatment. Feeding damages were also recorded using a scale of 0-100%.

[6] = system: Southern Armyworm (Spodoptera eridania), 2nd instar larvae; assay: Action on southern armyworm 2nd instar larvae, sprayed lima bean plants; settings: 96 h, 4 days after treatment, read-out: mortality in comparison with untreated controls
Description: Example B10: Action on Southern Armyworm (Spodoptera eridania), 2nd Instar Larvae
The active compounds were formulated by a Tecan liquid handler in 100% cyclohexanone as a 10,000 ppm solution supplied in tubes. The 10,000 ppm solution was serially diluted in 100% cyclohexanone to make interim solutions. These served as stock solutions for which final dilutions were made by the Tecan in 50% acetone:50% water (v/v) into 10 or 20 ml glass vials. A nonionic surfactant (Kinetic®) was included in the solution at a volume of 0.01% (v/v). The vials were then inserted into an automated electrostatic sprayer equipped with an atomizing nozzle for application to plants/insects.
Lima bean plants (variety Sieva) were grown 2 plants to a pot and selected for treatment at the 1st true leaf stage. Test solutions were sprayed onto the foliage by an automated electrostatic plant sprayer equipped with an atomizing spray nozzle. The plants were dried in the sprayer fume hood and then removed from the sprayer. Each pot was placed into perforated plastic bags with a zip closure. About 10 to 11 armyworm larvae were placed into the bag and the bags zipped closed. Test plants were maintained in a growth room at about 25° C. and about 20-40% relative humidity for 4 days, avoiding direct exposure to fluorescent light (24 hour photoperiod) to prevent trapping of heat inside the bags. Mortality and reduced feeding were assessed 4 days after treatment, compared to untreated control plants.

[7] = system: Orchid Thrips (Dichromothrips corbetti); assay: Action on orchid thrips, floral-immersion technique; settings: adult thrips, 72 hours after treatment, read-out: mortality in comparison with untreated controls
Description: Example B2: Action on Orchid Thrips (Dichromothrips Corbetti)
Dichromothrips corbettiadults used for bioassay were obtained from a colony maintained continuously under laboratory conditions. For testing purposes, the test compound is diluted in a 1:1 mixture of acetone:water (vol:vol), plus Kinetic® HV at a rate of 0.01% v/v.
Thrips potency of each compound was evaluated by using a floral-immersion technique. All petals of individual, intact orchid flowers were dipped into treatment solution and allowed to dry in Petri dishes. Treated petals were placed into individual re-sealable plastic along with about 20 adult thrips. All test arenas were held under continuous light and a temperature of about 28° C. for duration of the assay. After 3 days, the numbers of live thrips were counted on each petal. The percent mortality was recorded 72 hours after treatment.

[8] = 800 ppm, egg and larval mortality visually assessed after 5 days

Cc1cccc(C)c1NC(=S)N/N=C/c1ccc2c(ccc3c2ncn3-c2ccc(OC(F)(F)F)cc2)n1 [Compound C-1, 1-(2,6-dimethylphenyl)-3-[(E)-[3-[4-(trifluoromethoxy)phenyl]imidazo[4,5-f]quinolin-7-yl]methyleneamino]thiourea]
≥ 75%: mortality at 800 ppm [1] | mortality at 800 ppm [2, 8] | mortality at 800 ppm [3] | mortality at 800 ppm [4]

Cc1cccc(C)c1N1C(=O)CS/C1=N\N=C\c1ccc2c(ccc3c2ncn3-c2ccc(OC(F)(F)F)cc2)n1 [Compound C-2, (2Z)-3-(2,6-dimethylphenyl)-2-[(E)-[3-[4-(trifluoromethoxy)phenyl]imidazo[4,5-f]quinolin-7-yl]methylenehydrazono]thiazolidin-4-one]
≥ 75%: mortality at 500 ppm [5] | mortality at 800 ppm [1] | mortality at 800 ppm [2, 8] | mortality at 800 ppm [3] | mortality at 800 ppm [4] | mortality at 500 ppm [6] | mortality at 500 ppm [7]

Cc1cccc(C)c1/N=C1\SCC(=O)N1/N=C/c1ccc2c(ccc3c2ncn3-c2ccc(OC(F)(F)F)cc2)n1 [Compound C-7, (2Z)-2-(2,6-dimethylphenyl)imino-3-[(E)-[3-[4-(trifluoromethoxy)phenyl]imidazo[4,5-f]quinolin-7-yl]methyleneamino]thiazolidin-4-one]
≥ 75%: mortality at 500 ppm [5] | mortality at 800 ppm [1] | mortality at 800 ppm [2, 8] | mortality at 800 ppm [3] | mortality at 800 ppm [4] | mortality at 500 ppm [6] | mortality at 500 ppm [7]

CC1CCC(C(C)C)C(OC(=O)Nc2ccc3c(ccc4c3ncn4-c3ccc(OC(F)(F)F)cc3)n2)C1 (stereo not drawn) [Compound C-12, (2-isopropyl-5-methyl-cyclohexyl) N-[3-[4-(trifluoromethoxy)phenyl]imidazo[4,5-f]quinolin-7-yl]carbamate]
≥ 75%: mortality at 800 ppm [2]

CC(C)c1ccccc1NC(=S)N/N=C/c1cnc2c(ccc3c2ncn3-c2ccc(OC(F)(F)F)cc2)c1 [Compound C-13, 1-(2-isopropylphenyl)-3-[(E)-[3-[4-(trifluoromethoxy)phenyl]imidazo[4,5-h]quinolin-7-yl]methyleneamino]thiourea]
≥ 75%: mortality at 500 ppm [5] | mortality at 800 ppm [2, 8] | mortality at 800 ppm [3] | mortality at 800 ppm [4] | mortality at 500 ppm [6]

Cc1cccc(C)c1NC(=S)N/N=C/c1cnc2c(ccc3c2ncn3-c2ccc(OC(F)(F)F)cc2)c1 [Compound C-14, 1-(2,6-dimethylphenyl)-3-[(E)-[3-[4-(trifluoromethoxy)phenyl]imidazo[4,5-h]quinolin-7-yl]methyleneamino]thiourea]
≥ 75%: mortality at 500 ppm [5] | mortality at 800 ppm [1] | mortality at 800 ppm [2, 8] | mortality at 800 ppm [3] | mortality at 800 ppm [4] | mortality at 500 ppm [7]

Cc1cccc(C)c1N1C(=O)CS/C1=N\N=C\c1cnc2c(ccc3c2ncn3-c2ccc(OC(F)(F)F)cc2)c1 [Compound C-15, (2Z)-3-(2,6-dimethylphenyl)-2-[(E)-[3-[4-(trifluoromethoxy)phenyl]imidazo[4,5-h]quinolin-7-yl]methylenehydrazono]thiazolidin-4-one]
≥ 75%: mortality at 500 ppm [5] | mortality at 800 ppm [1] | mortality at 800 ppm [2, 8] | mortality at 800 ppm [3] | mortality at 800 ppm [4] | mortality at 500 ppm [6] | mortality at 500 ppm [7]

CC(C)c1ccccc1N1CCCS/C1=N/N=C/c1ccc2c(ccc3c2ncn3-c2ccc(OC(F)(F)F)cc2)n1 [Compound C-22, (E)-3-(2-isopropylphenyl)-N-[(E)-[3-[4-(trifluoromethoxy)phenyl]imidazo[4,5-f]quinolin-7-yl]methyleneamino]-1,3-thiazinan-2-imine]
≥ 75%: mortality at 500 ppm [5] | mortality at 800 ppm [1] | mortality at 800 ppm [2, 8] | mortality at 800 ppm [3] | mortality at 800 ppm [4] | mortality at 500 ppm [7]

CC(C)c1ccccc1NC(=S)N/N=C/c1cc2ccc3c(ncn3-c3ccc(OC(F)(F)F)cc3)c2cn1 [Compound C-24, 1-(2-isopropylphenyl)-3-[(E)-[3-[4-(trifluoromethoxy)phenyl]imidazo[4,5-h]isoquinolin-7-yl]methyleneamino]thiourea]
≥ 75%: mortality at 500 ppm [5] | mortality at 800 ppm [2, 8] | mortality at 800 ppm [3] | mortality at 800 ppm [4] | mortality at 500 ppm [6]

Cc1cccc(C)c1NC(=S)N/N=C/c1cc2ccc3c(ncn3-c3ccc(OC(F)(F)F)cc3)c2cn1 [Compound C-25, 1-(2,6-dimethylphenyl)-3-[(E)-[3-[4-(trifluoromethoxy)phenyl]imidazo[4,5-h]isoquinolin-7-yl]methyleneamino]thiourea]
≥ 75%: mortality at 500 ppm [5] | mortality at 800 ppm [2, 8] | mortality at 800 ppm [3] | mortality at 800 ppm [4]

CC(C)c1ccccc1N1C(=O)CS/C1=N\N=C\c1cc2ccc3c(ncn3-c3ccc(OC(F)(F)F)cc3)c2cn1 [Compound C-26, (2Z)-3-(2-isopropylphenyl)-2-[(E)-[3-[4-(trifluoromethoxy)phenyl]imidazo[4,5-h]isoquinolin-7-yl]methylenehydrazono]thiazolidin-4-one]
≥ 75%: mortality at 500 ppm [5] | mortality at 800 ppm [1] | mortality at 800 ppm [2, 8] | mortality at 800 ppm [3] | mortality at 800 ppm [4] | mortality at 500 ppm [6] | mortality at 500 ppm [7]

CC(C)c1ccccc1NC(=S)N/N=C/c1ccc2c(ccc3c2ncn3-c2ccc(OC(F)F)cc2)n1 [Compound C-31, 1-[(E)-[3-[4-(difluoromethoxy)phenyl]imidazo[4,5-f]quinolin-7-yl]methyleneamino]-3-(2-isopropylphenyl)thiourea]
≥ 75%: mortality at 500 ppm [5] | mortality at 500 ppm [7]

CC(C)c1ccccc1N1C(=O)CS/C1=N/N=C/c1ccc2c(ccc3c2ncn3-c2ccc(OC(F)F)cc2)n1 [Compound C-32, (2E)-2-[(E)-[3-[4-(difluoromethoxy)phenyl]imidazo[4,5-f]quinolin-7-yl]methylenehydrazono]-3-(2-isopropylphenyl)thiazolidin-4-one]
≥ 75%: mortality at 500 ppm [5] | mortality at 500 ppm [7]
